Calls of active or inactive are those of the source. The calls are words filed in the database; no cut-off is given here. Some results are limits rather than exact numbers.

Holding throughout (assay type): cell-based
In assay [1] the target is T1, Progesterone receptor (Homo sapiens, UniProt P06401).
T1 sequence (P06401 whole entry): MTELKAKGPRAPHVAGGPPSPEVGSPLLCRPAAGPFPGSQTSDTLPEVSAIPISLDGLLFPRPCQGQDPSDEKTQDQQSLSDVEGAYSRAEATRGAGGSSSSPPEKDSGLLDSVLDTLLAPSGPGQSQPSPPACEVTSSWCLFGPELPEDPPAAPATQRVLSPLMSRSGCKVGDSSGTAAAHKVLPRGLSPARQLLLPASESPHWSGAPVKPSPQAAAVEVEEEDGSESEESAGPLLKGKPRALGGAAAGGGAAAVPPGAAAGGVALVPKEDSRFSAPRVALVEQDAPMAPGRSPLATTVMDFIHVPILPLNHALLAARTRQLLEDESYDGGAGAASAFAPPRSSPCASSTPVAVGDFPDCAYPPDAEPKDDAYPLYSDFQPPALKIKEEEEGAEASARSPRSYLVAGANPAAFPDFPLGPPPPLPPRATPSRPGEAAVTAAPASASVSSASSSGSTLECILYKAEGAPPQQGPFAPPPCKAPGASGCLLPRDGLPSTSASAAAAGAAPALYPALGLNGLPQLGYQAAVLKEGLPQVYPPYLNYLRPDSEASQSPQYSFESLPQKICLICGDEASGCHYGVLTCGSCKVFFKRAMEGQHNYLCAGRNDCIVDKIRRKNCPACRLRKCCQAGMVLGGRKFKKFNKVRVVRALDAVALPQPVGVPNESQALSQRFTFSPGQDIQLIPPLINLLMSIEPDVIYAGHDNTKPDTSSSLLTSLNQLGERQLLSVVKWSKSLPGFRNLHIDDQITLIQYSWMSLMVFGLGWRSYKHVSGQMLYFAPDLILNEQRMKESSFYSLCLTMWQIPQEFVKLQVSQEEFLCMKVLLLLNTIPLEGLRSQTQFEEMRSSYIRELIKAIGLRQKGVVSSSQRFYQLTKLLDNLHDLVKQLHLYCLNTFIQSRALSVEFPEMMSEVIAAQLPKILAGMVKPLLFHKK
The assay can be described thus: Agonist activity at PR in human T47D cells using p-nitrophenyl phosphate as substrate assessed as induction of alkaline phosphatase activity incubated for 72 hrs followed by substrate addition measured after 24 hrs by alkaline phosphatase assay.

For assay [2], the target named is T2, Progesterone receptor (Homo sapiens) (UniProt P06401).
T2 sequence (whole entry): T1 sequence (P06401 whole entry)
The assay can be described thus: Agonist activity at PR in human T47D cells using p-nitrophenyl phosphate as substrate assessed as induction of alkaline phosphatase activity at 125 nM incubated for 72 hrs followed by substrate addition measured after 24 hrs by alkaline phosphatase assay. To be noted: time 96.0 hrs.

The target in assay [3] is T2, Progesterone receptor (Homo sapiens). The assay can be described thus: Agonist activity at PR in human T47D cells using p-nitrophenyl phosphate as substrate assessed as induction of alkaline phosphatase activity at 1 nM incubated for 72 hrs followed by substrate addition measured after 24 hrs by alkaline phosphatase assay relative to control. Particulars: filed as agonist, time 96.0 hrs.

Assay [4] shares this target. The assay can be described thus: Agonist activity at PR in human T47D cells using p-nitrophenyl phosphate as substrate assessed as fold increase in alkaline phosphatase activity at 25 nM incubated for 72 hrs followed by substrate addition measured after 24 hrs by alkaline phosphatase assay relative to control. Particulars: filed as agonist, time 96.0 hrs.

Take `CC(=O)O[C@@]1(C(C)=O)CC[C@H]2[C@@H]3CCC4=CC(=O)CC[C@@H]4[C@H]3[C@@H](C)C[C@@]21C`: the EC50 (usually the concentration needed to bring the measured effect to its halfway point) in assay [1] was more than 125 nM. The result in assay [2] was inactive. The Activity in assay [3] came to 89.3%.
With `CC(=O)O[C@]1(C(C)=O)CC[C@H]2[C@@H]3CCC4=CC(=O)CC[C@@H]4[C@H]3[C@@H](C)C[C@@]21C` [NORGESTOMET], the EC50 in assay [1] amounted to 4.5 nM. Moreover, the fold change (FC) in assay [4] came to 2. Moreover, the Activity in assay [3] was 106%.
Consider `CC(=O)[C@H]1CC[C@H]2[C@@H]3CCC4=CC(=O)CC[C@]4(C)[C@H]3CC[C@]12C`, for which, in assay [3], the Activity was found to be 158%.

These data come from ChEMBL document CHEMBL5055652 (Bioorg Med Chem, 2021).
